Laboratory results as given in the supplement of paper PMC10627819.

Assays:
Assay in all cases: fitness (endpoint OD595 vs no drug) (fraction); higher = more growth
B. subtilis 168 = tested on: B. subtilis 168
Summary of the method: (§1)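 Cultures at OD595 0.01 were dispensed into 384-well plates in TSB, LB Lennox or CY and incubated at 37 °C. Every 30 min for 14 h, OD595 was read and corrected by the first reading. Fitness is the optical density at entry into stationary phase relative to the robust mean of no-drug control wells, capped at 1.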

S. aureus Newman = conditions: one replicate
Summary of the method: as §1

S. pneumoniae D39V = tested on: S. pneumoniae D39V
Summary of the method: as §1

O=C(O)[C@H]1/C(=C/CO)O[C@@H]2CC(=O)N21 [Clavulanic acid] + CCN(CC)CCOC(=O)c1ccc(N)cc1 [Procaine]
fitness
Conditions | partner 85.5 µg/mL | partner 171 µg/mL | partner 342 µg/mL
B. subtilis 168, first compound 1.5 µg/mL | 0.876 | 0.92 | 0.902
B. subtilis 168, first compound 3 µg/mL | 0.839 | 0.831 | 0.795
B. subtilis 168, first compound 6 µg/mL | 0.746 | 0.739 | 0.672
S. aureus Newman, first compound 0.03125 µg/mL | 0.948 | 0.929 | 0.963
S. aureus Newman, first compound 0.0625 µg/mL | 0.982 | ≥ 1 | ≥ 1
S. aureus Newman, first compound 0.125 µg/mL | 0.872 | 0.852 | 0.894
S. pneumoniae D39V, first compound 0.5 µg/mL | 0.994 | ≥ 1 | ≥ 1
S. pneumoniae D39V, first compound 1 µg/mL | 0.957 | 0.977 | 0.934
S. pneumoniae D39V, first compound 2 µg/mL | 0.832 | 0.912 | 0.795

O=C(O)[C@H]1/C(=C/CO)O[C@@H]2CC(=O)N21 [Clavulanic acid] + CN1C2=CC=CC=C2N=C3C1=CC=CC3=O [Pyocyanin]
fitness
Conditions | partner 0.65 µg/mL | partner 1.25 µg/mL | partner 1.3 µg/mL | partner 2.5 µg/mL | partner 5 µg/mL
B. subtilis 168, first compound 1.5 µg/mL | – | 0.91 | – | 0.837 | 0.678
B. subtilis 168, first compound 3 µg/mL | – | 0.798 | – | 0.818 | 0.665
B. subtilis 168, first compound 6 µg/mL | – | 0.748 | – | 0.719 | 0.604
S. aureus Newman, first compound 0.03125 µg/mL | – | 0.884 | – | 0.898 | 0.723
S. aureus Newman, first compound 0.0625 µg/mL | – | 0.934 | – | 0.87 | 0.785
S. aureus Newman, first compound 0.125 µg/mL | – | 0.855 | – | 0.827 | 0.74
S. pneumoniae D39V, first compound 0.5 µg/mL | ≥ 1 | – | 0.765 | – | –
S. pneumoniae D39V, first compound 1 µg/mL | 0.94 | – | 0.791 | – | –
S. pneumoniae D39V, first compound 2 µg/mL | 0.861 | – | 0.581 | – | –

O=C(O)[C@H]1/C(=C/CO)O[C@@H]2CC(=O)N21 [Clavulanic acid] + CN(C)c1cc(NC(=O)CNC(C)(C)C)c(O)c2c1C[C@H]1C[C@H]3[C@H](N(C)C)C(O)=C(C(N)=O)C(=O)[C@@]3(O)C(O)=C1C2=O [Tigecycline]
Conditions | fitness
B. subtilis 168, first compound 1.5 µg/mL, partner 0.039 µg/mL | 0.98
B. subtilis 168, first compound 1.5 µg/mL, partner 0.078 µg/mL | 0.919
B. subtilis 168, first compound 1.5 µg/mL, partner 0.156 µg/mL | 0.884
B. subtilis 168, first compound 3 µg/mL, partner 0.039 µg/mL | 0.888
B. subtilis 168, first compound 3 µg/mL, partner 0.078 µg/mL | 0.899
B. subtilis 168, first compound 3 µg/mL, partner 0.156 µg/mL | 0.889
B. subtilis 168, first compound 6 µg/mL, partner 0.039 µg/mL | 0.82
B. subtilis 168, first compound 6 µg/mL, partner 0.078 µg/mL | 0.796
B. subtilis 168, first compound 6 µg/mL, partner 0.156 µg/mL | 0.79
S. aureus Newman, first compound 0.03125 µg/mL, partner 0.039 µg/mL | 0.952
S. aureus Newman, first compound 0.03125 µg/mL, partner 0.078 µg/mL | 0.933
S. aureus Newman, first compound 0.03125 µg/mL, partner 0.156 µg/mL | 0.96
S. aureus Newman, first compound 0.0625 µg/mL, partner 0.039 µg/mL | 0.987
S. aureus Newman, first compound 0.0625 µg/mL, partner 0.078 µg/mL | 1
S. aureus Newman, first compound 0.0625 µg/mL, partner 0.156 µg/mL | 0.971
S. aureus Newman, first compound 0.125 µg/mL, partner 0.039 µg/mL | 0.919
S. aureus Newman, first compound 0.125 µg/mL, partner 0.078 µg/mL | 0.884
S. aureus Newman, first compound 0.125 µg/mL, partner 0.156 µg/mL | 0.898
S. pneumoniae D39V, first compound 0.5 µg/mL, partner 0.325 µg/mL | ≥ 1
S. pneumoniae D39V, first compound 0.5 µg/mL, partner 0.65 µg/mL | 0.965
S. pneumoniae D39V, first compound 0.5 µg/mL, partner 1.3 µg/mL | 0.931
S. pneumoniae D39V, first compound 0.5 µg/mL, partner 2.6 µg/mL | 0.866
S. pneumoniae D39V, first compound 1 µg/mL, partner 0.325 µg/mL | 0.908
S. pneumoniae D39V, first compound 1 µg/mL, partner 0.65 µg/mL | 0.889
S. pneumoniae D39V, first compound 1 µg/mL, partner 1.3 µg/mL | 0.877
S. pneumoniae D39V, first compound 1 µg/mL, partner 2.6 µg/mL | 0.814
S. pneumoniae D39V, first compound 2 µg/mL, partner 0.325 µg/mL | 0.717
S. pneumoniae D39V, first compound 2 µg/mL, partner 0.65 µg/mL | 0.782
S. pneumoniae D39V, first compound 2 µg/mL, partner 1.3 µg/mL | 0.815
S. pneumoniae D39V, first compound 2 µg/mL, partner 2.6 µg/mL | 0.755

fitness, B. subtilis 168, one replicate
Conditions | first compound 1.5 µg/mL | first compound 3 µg/mL | first compound 6 µg/mL
partner 0.125 µg/mL | 0.956 | 0.952 | 0.814
partner 0.25 µg/mL | 0.863 | 0.928 | 0.821
partner 0.5 µg/mL | 0.866 | 0.865 | 0.765

O=C(O)[C@H]1/C(=C/CO)O[C@@H]2CC(=O)N21 [Clavulanic acid] + CN(N=O)C(=O)N[C@@H](C=O)[C@@H](O)[C@H](O)[C@H](O)CO [Streptozotocin]
fitness
Conditions | partner 0.15 µg/mL | partner 0.3 µg/mL | partner 0.6 µg/mL | partner 1.2 µg/mL | partner 2.4 µg/mL | partner 4.8 µg/mL
B. subtilis 168, first compound 1.5 µg/mL | 0.914 | 0.898 | 0.911 | – | – | –
B. subtilis 168, first compound 3 µg/mL | 0.861 | 0.848 | 0.929 | – | – | –
B. subtilis 168, first compound 6 µg/mL | 0.779 | 0.772 | 0.75 | – | – | –
S. aureus Newman, first compound 0.03125 µg/mL | 0.937 | 0.91 | 0.667 | – | – | –
S. aureus Newman, first compound 0.0625 µg/mL | 0.977 | 0.911 | 0.761 | – | – | –
S. aureus Newman, first compound 0.125 µg/mL | 0.923 | 0.865 | 0.655 | – | – | –
S. pneumoniae D39V, first compound 0.5 µg/mL | – | – | – | 0.937 | 0.979 | 0.944
S. pneumoniae D39V, first compound 1 µg/mL | – | – | – | 0.882 | 0.947 | 0.864
S. pneumoniae D39V, first compound 2 µg/mL | – | – | – | 0.784 | 0.876 | 0.747

O=C(O)[C@H]1/C(=C/CO)O[C@@H]2CC(=O)N21 [Clavulanic acid] + CN[C@@H]1[C@H](O)[C@H](NC)[C@H]2O[C@@]3(O)C(=O)C[C@@H](C)O[C@H]3O[C@@H]2[C@H]1O [Spectinomycin]
fitness
Conditions | partner 2 µg/mL | partner 4 µg/mL | partner 8 µg/mL | partner 16 µg/mL
B. subtilis 168, first compound 1.5 µg/mL | 0.892 | 0.929 | 0.934 | –
B. subtilis 168, first compound 3 µg/mL | 0.951 | 0.868 | 0.867 | –
B. subtilis 168, first compound 6 µg/mL | 0.832 | 0.755 | 0.72 | –
S. aureus Newman, first compound 0.03125 µg/mL | – | 0.961 | 0.945 | 0.92
S. aureus Newman, first compound 0.0625 µg/mL | – | 0.922 | 0.945 | 0.885
S. aureus Newman, first compound 0.125 µg/mL | – | 0.916 | 0.958 | 0.905
S. pneumoniae D39V, first compound 0.5 µg/mL | – | 0.916 | 0.852 | 0.658
S. pneumoniae D39V, first compound 1 µg/mL | – | 0.809 | 0.845 | 0.621
S. pneumoniae D39V, first compound 2 µg/mL | – | 0.79 | 0.749 | 0.447
